Experimental data taken from patent US20240050513A1, “COMPOSITION FOR PREVENTING, AMELIORATING, OR TREATING DISEASE CAUSED BY PROTEIN NITRATION […] WITH TERMINAL TYROSINE AS EFFECTIVE COMPONENT” (INDUSTRY-ACADEMIC COOPERATION FOUNDATION GYEONGSANG …, priority 2021, published 2024).

What was measured:
[1] = tested on: glutamine synthetase (GS); assay: Hippocampal glutamine synthetase activity in kainic acid epileptic seizure model
Procedure: Kainic acid (KA) was dissolved in saline by heating in a water bath, resulting in a 4.5 mg/ml KA solution. The resulting KA solution was then intraperitoneally injected at a dose of 36 mg/kg, and seizure level and symptoms were recorded for 2 hours. The brain tissues (prefrontal cortex and hippocampus) of the mice that survived 16 hours or 5 days after the KA injection were collected.
To a 96-well plate, 2 μl of hippocampal homogenate was added, and 50 μl of 50 mM imidazole-HCl buffer (pH 6.8) were added to adjust the volume to 50 μl. Then, 50 μl of GS assay buffer (50 mM imidazole-HCl, pH 6.8, 25 mM L-glutamine, 12.5 mM hydroxylamine, 12.5 mM sodium arsenate, 1 mM MnCl2, and 0.08 mM ADP) were added and the reaction was allowed to occur at 37° C. for approximately 40 minutes. […] To terminate the reaction, 100 μl of stop solution (90 mM FeCl3, 1.8 N HCl, and 1.45% w/v trichloroacetic acid) were added to both the samples and the standard substance, and the absorbance was measured at 560 nm. The GS activity in each sample was determined by comparing it with the standard curve. GS activity was expressed as the generation amount of γ-glutamylhydroxamate, which is produced as a final product, and described in unit of μM/min/μg protein.

[2] = tested on: chronic immobilization stress C57BL/6 mice; conditions: stress group, peptide diet vs normal diet
Procedure: A total of 28 male C57BL/6 mice at 7 weeks of age were divided into two groups: a control group (CTL) and a stress group (STR). The stress group was subjected to chronic immobilization stress for 15 days. Specifically, each mouse in the stress group was individually placed in a restrainer for 2 hours daily from […] to induce chronic immobilization stress. The control group (CTL) and stress group (STR) were further classified based on their diets. […] After the completion of the 15-day chronic immobilization stress, the mice were subjected to a sucrose preference test (SPT). Blood samples and prefrontal cortex (PFC) tissues were collected from the mice for subsequent test.
For the analysis of anti-depressive effect, blood and PFC tissues were collected from mice that underwent chronic immobilization stress. The blood collected from mice was centrifuged at 1,000×g for 10 minutes at 4° C. to separate the plasma, and the supernatant was collected and diluted 1/20 with PBS to prepare a sample. The corticosterone concentration in the plasma was then measured using the Corticosterone EIA kit (Cayman) by following the manufacturer's instructions.
In addition, the plasma diluted with PBS at a ⅓ ratio and the PFC tissue lysate (50 μg) were prepared. The ROS/RNS (reactive oxygen species/reactive nitrogen species) level in the plasma and PFC tissues was measured using the ROS/RNS assay kit (Cell Biolabs) according to the manufacturer's instructions.
In addition, the depression was evaluated by measuring the sucrose preference of mice that had undergone 15 days of chronic immobilization stress. The sucrose preference test was conducted over a total of 4 days. Equal amounts of 0.1 M sucrose solution and water were provided in identical bottles of the same size and shape. On the first day, mice were given access to 0.1 M sucrose solution and water for 24 hours. On the second day, the positions of the sucrose solution and water bottles were switched, and mice were given access for 24 hours. On the third day, no sucrose solution or water was provided. On the fourth day, mice were again given access to equal amounts of 0.1 M sucrose solution and water for 3 hours, the positions were then switched, and access was provided for another 3 hours. The amount of sucrose solution and water consumed during the 6-hour period on the fourth day was measured, and the sucrose preference (%) was calculated according to the following formula.
Sucrose preference (%)=Sucrose intake amount/(Water intake amount+Sucrose intake amount)×100

[3] = tested on: superoxide dismutase (SOD); assay: Hippocampal SOD activity in ischemic stroke model; type: in vivo, Mongolian gerbils; conditions: hippocampus, 200 mg/kg i.p. once, twenty-four hours after reperfusion
Procedure: Three-month-old male Mongolian gerbils were induced with general anesthesia using 3% isoflurane and the anesthesia was maintained with 2.5% isoflurane gas. After sterilizing the neck area, a midline incision was made to expose both common carotid arteries, and microvessel clip was used to block the blood flow for 5 minutes, inducing cerebral ischemia to simulate a stroke. During the application of the microvessel clip, the body temperature was maintained at 37.0±0.5° C., and animals undergoing sham operation were used as the control group.
After inducing ischemia, the animal was, under reperfusion, intraperitoneally administered once with YQ peptide at a dose of 200 mg/kg. Two hours or twenty-four hours after the reperfusion, the animal was anesthetized with avertin. Then, the skull was quickly opened, and the brain was rapidly removed. The hippocampal tissue was collected and rapidly frozen in liquid nitrogen, then stored in a deep freezer. Subsequently, the activities of superoxide dismutase (SOD) and catalase (CAT) were measured by using SOD colorimetric activity kit and CAT colorimetric activity kit, respectively.

[4] = tested on: azoxymethane (AOM) hyperammonemia C57BL/6 mice; assay: Azoxymethane-induced hyperammonemia model; type: in vivo
Procedure: They were allowed free access to water and food. The mice were divided into four groups: (1) control group (Control), (2) hyperammonemia group administered with water (Veh+AOM), (3) hyperammonemia group administered with 100 mg/kg YQ peptide (YQ100+AOM), and (4) hyperammonemia group administered with 200 mg/kg YQ peptide (YQ200+AOM). YQ peptide was administered orally once a day for four consecutive days. On the fourth day, 2 hours after the last oral administration of YQ peptide, azoxymethane (AOM) at a dose of 100 mg/kg was intraperitoneally injected to induce hyperammonemia. To prevent dehydration 12 hours after AOM administration, 200 μl of physiological saline containing 0.5% glucose were injected into the abdominal cavity.
Ammonia is a primary metabolite of amino acids and nucleic acids, and the main enzymes involved in the conversion of ammonia into urea in urea cycle are found only in liver cells. In addition, the liver tissue is also rich in enzymes such as GS (glutamine synthetase) and SOD (superoxide dismutase), which help lower ammonia level, and catalase which removes reactive oxygen species. Therefore, a change in blood ammonia level as it travels from the liver to the brain through the bloodstream serves as an important indicator of hepatic encephalopathy. Accordingly, to measure the amount of blood ammonia, a PocketChem BA PA-4140 analyzer (Arkray, Japan), which is a single-wavelength reflectance measurement analyzer, was utilized. The analyzer measures the absorbance at 635 nm (LED) wavelength after the reaction 20 μl of blood with the test strip at room temperature for 3 minutes.
Western blot analysis was performed using an antibody against nitrotyrosine.

[5] = YQ200+AOM (200 mg/kg) vs veh+AOM, p<0.05

With tyrosine-glutamine [YQ] the “activity of glutamine synthetase” value ([1]; kainic acid-treated animals, YQ i.p vs normal diet) was “statistically significantly increased”, the “activity of the glutamine synthetase in the hippocampal tissue” value ([1]; survived mice after kainic acid, 3xYQ) was “increased” and the “ROS/RNS level in PFC tissue” value [2] was “decreased”. The sucrose preference [2] was “increased”, the SOD activity [3] was “activity increases” and the “expression level of nitrotyrosine in liver tissues” value [4, 5] was “statistically significant decrease”. The serum ammonia concentration [4, 5] was “statistically significant decrease”, the “increase in blood ammonia caused by AOM” value ([4]; YQ oral once a day four days (100 or 200 mg/kg)) was “significantly suppressed” and the “nitrotyrosine protein level in the liver tissue” value ([4]; YQ oral once a day four days, after AOM) was “significantly reduced”.
